Measured values taken from PubChem BioAssay (NCI).
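All cell lines were grown in 96-well plates and treated with compound for 48 hours. Definition used: TGI = concentration required for complete inhibition of growth.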

How the values were obtained:
Assay in all cases: growth of human tumour cells (NCI), 48 h
[1] = tested on: A498 renal
[2] = tested on: ACHN renal
[3] = tested on: UACC-62 melanoma
[4] = tested on: K-562 leukemia
[5] = tested on: T-47D breast
[6] = tested on: SF-295 CNS
[7] = tested on: EKVX NSCLC
[8] = tested on: HS 578T breast
[9] = tested on: OVCAR-3 ovarian
[10] = tested on: MDA-MB-435
[11] = tested on: SK-MEL-2 melanoma
[12] = tested on: UO-31 renal
[13] = tested on: OVCAR-5 ovarian
[14] = tested on: NCI/ADR-RES ovarian
[15] = tested on: MDA-N
[16] = tested on: UACC-257 melanoma
[17] = tested on: 786-0 renal
[18] = tested on: OVCAR-4 ovarian
[19] = tested on: SF-539 CNS
[20] = tested on: HT29 colon
[21] = tested on: MCF7 breast
[22] = tested on: SK-MEL-5 melanoma
[23] = tested on: NCI-H226 lung
[24] = tested on: SW-620 colon
[25] = tested on: IGROV1 ovarian
[26] = tested on: HOP-62 NSCLC
[27] = tested on: HCT-15 colon
[28] = tested on: KM12 colon
[29] = tested on: NCI-H460 lung
[30] = tested on: CAKI-1 renal
[31] = tested on: TK-10 renal
[32] = tested on: SNB-75 CNS
[33] = tested on: CCRF-CEM leukemia
[34] = tested on: SN12C renal
[35] = tested on: SNB-19 CNS
[36] = tested on: COLO 205 colon
[37] = tested on: OVCAR-8 ovarian
[38] = tested on: A549 NSCLC
[39] = tested on: MALME-3M melanoma
[40] = tested on: MOLT-4 leukemia
[41] = tested on: M14 melanoma
[42] = tested on: PC-3 prostate
[43] = tested on: BT-549 breast
[44] = tested on: SK-MEL-28 melanoma
[45] = tested on: MDA-MB-231 breast
[46] = tested on: SR leukemia
[47] = tested on: HCC-2998 colon
[48] = tested on: U251 CNS
[49] = tested on: DU-145 prostate
[50] = tested on: LOX IMVI melanoma
[51] = tested on: NCI-H23 lung
[52] = tested on: HCT-116 colon
[53] = tested on: HOP-92 NSCLC
[54] = tested on: RPMI-8226 leukemia
[55] = tested on: SK-OV-3 ovarian
[56] = tested on: NCI-H522 lung
[57] = tested on: RXF 393 renal
[58] = tested on: SF-268 CNS
[59] = tested on: HL-60(TB) leukemia

N#CC1Cc2cc3c(cc21)OCO3 (centres undefined) was tested. Which TGI [1] did it give?
The TGI was over 100 µM.

What about the TGI [2] of the same compound?
The TGI was over 100 µM.

What about the TGI [3] of the same compound?
Its TGI is over 100 µM.

What about the TGI [4] of the same compound?
The TGI was over 100 µM.

What about the TGI [5] of the same compound?
The TGI was over 100 µM.

And the TGI [6]?
Its TGI is over 100 µM.

What about the TGI [7] of the same compound?
The TGI was over 100 µM.

And the TGI [8]?
Its TGI is over 100 µM.

And the TGI [9]?
The TGI was over 100 µM.

And the TGI [10]?
Its TGI is over 100 µM.

And the TGI [11]?
Its TGI is over 100 µM.

What about the TGI [12] of the same compound?
The TGI was over 100 µM.

And the TGI [13]?
Its TGI is over 100 µM.

And the TGI [14]?
Its TGI is over 100 µM.

And the TGI [15]?
Its TGI is over 100 µM.

And the TGI [16]?
Its TGI is over 100 µM.

And the TGI [17]?
Its TGI is over 100 µM.

What about the TGI [18] of the same compound?
The TGI was over 100 µM.

What about the TGI [19] of the same compound?
Its TGI is over 100 µM.

What about the TGI [20] of the same compound?
Its TGI is over 100 µM.

And the TGI [21]?
Its TGI is over 100 µM.

What about the TGI [22] of the same compound?
The TGI was over 100 µM.

And the TGI [23]?
Its TGI is over 100 µM.

And the TGI [24]?
Its TGI is over 100 µM.

What about the TGI [25] of the same compound?
The TGI was over 100 µM.

What about the TGI [26] of the same compound?
The TGI was over 100 µM.

What about the TGI [27] of the same compound?
Its TGI is over 100 µM.

And the TGI [28]?
The TGI was over 100 µM.

What about the TGI [29] of the same compound?
Its TGI is over 100 µM.

And the TGI [30]?
The TGI was over 100 µM.

What about the TGI [31] of the same compound?
The TGI was over 100 µM.

And the TGI [32]?
Its TGI is over 100 µM.

What about the TGI [33] of the same compound?
Its TGI is over 100 µM.

And the TGI [34]?
Its TGI is over 100 µM.

What about the TGI [35] of the same compound?
The TGI was over 100 µM.

What about the TGI [36] of the same compound?
Its TGI is over 100 µM.

What about the TGI [37] of the same compound?
The TGI was over 100 µM.

What about the TGI [38] of the same compound?
The TGI was over 100 µM.

What about the TGI [39] of the same compound?
Its TGI is over 100 µM.

What about the TGI [40] of the same compound?
Its TGI is over 100 µM.

And the TGI [41]?
The TGI was over 100 µM.

And the TGI [42]?
Its TGI is over 100 µM.

And the TGI [43]?
Its TGI is over 100 µM.

What about the TGI [44] of the same compound?
The TGI was over 100 µM.

And the TGI [45]?
Its TGI is over 100 µM.

What about the TGI [46] of the same compound?
Its TGI is over 100 µM.

What about the TGI [47] of the same compound?
The TGI was over 100 µM.

And the TGI [48]?
Its TGI is over 100 µM.

What about the TGI [49] of the same compound?
The TGI was over 100 µM.

What about the TGI [50] of the same compound?
Its TGI is over 100 µM.

What about the TGI [51] of the same compound?
Its TGI is over 100 µM.

What about the TGI [52] of the same compound?
The TGI was over 100 µM.

And the TGI [53]?
Its TGI is over 100 µM.

How did the TGI [1] turn out when CCN1C=C/C(=C\C=C/c2cc[n+](CC)c3ccccc23)c2ccccc21 was run?
Its TGI is 8.78 µM.

What about the TGI [2] of the same compound?
Its TGI is 33.8 µM.

And the TGI [3]?
The TGI was 23.8 µM.

What about the TGI [5] of the same compound?
Its TGI is 28 µM.

What about the TGI [6] of the same compound?
The TGI was 12.5 µM.

And the TGI [7]?
The TGI was 47 µM.

What about the TGI [8] of the same compound?
Its TGI is 24.6 µM.

And the TGI [9]?
The TGI was 6.81 µM.

What about the TGI [10] of the same compound?
Its TGI is 14.2 µM.

What about the TGI [11] of the same compound?
Its TGI is 21.2 µM.

And the TGI [12]?
Its TGI is 35.6 µM.

And the TGI [54]?
Its TGI is 12 µM.

And the TGI [13]?
Its TGI is 15.1 µM.

What about the TGI [14] of the same compound?
Its TGI is over 100 µM.

What about the TGI [55] of the same compound?
The TGI was 15.1 µM.

And the TGI [15]?
Its TGI is 19.3 µM.

What about the TGI [16] of the same compound?
The TGI was 9.76 µM.

And the TGI [17]?
Its TGI is 18.2 µM.

And the TGI [18]?
Its TGI is 16.9 µM.

What about the TGI [19] of the same compound?
Its TGI is 9.08 µM.

What about the TGI [20] of the same compound?
The TGI was 13.8 µM.

And the TGI [21]?
The TGI was 20 µM.

And the TGI [56]?
The TGI was 23.1 µM.

And the TGI [22]?
Its TGI is 21.2 µM.

And the TGI [23]?
Its TGI is 16 µM.

What about the TGI [24] of the same compound?
The TGI was 16.2 µM.

And the TGI [25]?
Its TGI is 12.4 µM.

What about the TGI [26] of the same compound?
Its TGI is 8.18 µM.

What about the TGI [27] of the same compound?
The TGI was 34.1 µM.

What about the TGI [28] of the same compound?
The TGI was 12.4 µM.

And the TGI [29]?
Its TGI is 11 µM.

And the TGI [31]?
Its TGI is 28.1 µM.

And the TGI [32]?
Its TGI is 7.57 µM.

And the TGI [33]?
Its TGI is 30.9 µM.

And the TGI [34]?
Its TGI is 12.3 µM.

And the TGI [35]?
The TGI was 15.2 µM.

What about the TGI [36] of the same compound?
Its TGI is 17 µM.

What about the TGI [37] of the same compound?
Its TGI is 17.1 µM.

What about the TGI [38] of the same compound?
Its TGI is 21.2 µM.

And the TGI [39]?
The TGI was 30.5 µM.

What about the TGI [40] of the same compound?
Its TGI is 19.7 µM.

And the TGI [41]?
Its TGI is 16.9 µM.

What about the TGI [42] of the same compound?
Its TGI is 17.3 µM.

And the TGI [43]?
Its TGI is 51.2 µM.

What about the TGI [57] of the same compound?
The TGI was 70.3 µM.

What about the TGI [44] of the same compound?
The TGI was 21.8 µM.

What about the TGI [45] of the same compound?
The TGI was 9.32 µM.

What about the TGI [46] of the same compound?
Its TGI is 9.65 µM.

And the TGI [47]?
The TGI was 19 µM.

And the TGI [48]?
The TGI was 13 µM.

What about the TGI [49] of the same compound?
Its TGI is 26.3 µM.

What about the TGI [51] of the same compound?
The TGI was 11.7 µM.

What about the TGI [58] of the same compound?
The TGI was 19.6 µM.

And the TGI [52]?
The TGI was 13.4 µM.

And the TGI [53]?
Its TGI is 37.5 µM.

And the TGI [59]?
The TGI was 15.1 µM.
